Data taken from patent US10363276B2, “Compositions, methods, and devices for treating disease” (The General Hospital Corporation, priority 2006, dated 2019).

Columns and labels:
Hepatocytes = assay: Hepatocyte colonies and urea synthesis with modulation of SDF-1a signaling; type: cell-based; details: 5 ng/ml SDF-1a or AMD3100 at 1 uM in standard culture medium
Method: FIG. 24 is a bar graph of Urea synthesis in hepatocytes cultured on growth-arrested NIH-3T3-J2 fibroblasts for 14 days supplemented with 5 ng/ml SDF-1a or AMD3100, a CXCR4 antagonist. Data represent mean±standard error of the mean (s.e.m.) of two independent experiments performed in triplicate.
One component of MSC-CM that may be responsible for increased hepatocyte replication is SDF-1a. Hepatocytes were proliferated using aforementioned techniques in standard culture medium alone or supplemented with 5 ng/ml SDF-1a (FIG. 29B) or the SDF-1a receptor antagonist, AMD3100 at 1 uM.

human MSCs = assay: IL-10 mRNA (RT-PCR) and protein (ELISA) in cytokine-treated MSCs; type: cell-based; details: IL-6 2.5 ng/ml or TNF-α 25 ng/ml, 24 hours
Method: MSCs were exposed to IL-1, IL-6, or tumor necrosis factor-α(TNF-α), all of which are cytokines known to be involved in liver fibrosis, for 24 hours. IL-10 protein secretion and mRNA levels were the determined by enzyme-linked-immunosorbent-assay (ELISA) and RT-PCR, respectively.
Briefly, human MSCs were treated with 2.5 ng/ml IL-6 (R&D Systems, Minneapolis, Minn.), 5 ng/ml IL-1 (R&D Systems, Minneapolis, Minn.), or 25 ng/ml TNF-α (R&D Systems, Minneapolis, Minn.) supplemented MSC expansion medium for 24 hours. MSCs cultured in expansion medium served as a negative control. After treatment, cells were harvested and analyzed for changes in gene expression.
Quantification of human IL-10 was determined using an ELISA as per vendor instructions (Endogen, Rockford, Ill.). Supernatants were sampled after 48 hours of co-culture and stored at −20° C. until analysis.
RNA was extracted from 0.1-1.0×10^6 MSCs using the NUCLEOSPIN RNA purification kit (BD Biosciences, Palo Alto, Calif.) per the manufacturer's instructions. Approximately 1 μg of total mRNA was reverse transcribed to cDNA using the ONESTEP RT-PCR Kit (Qiagen, Valencia, Calif.) per manufacturer's instructions and amplified in a Perkin Elmer-Cetus Thermal Cycler 480. Cycling conditions were: 1) 50° C. for 30 minutes; 2) 95° C. for 15 minutes; 3) 30 cycles at 94° C. for 30 seconds, 55° C. for 30 seconds, and 72° C. for 1 minute; and 4) a final extension step at 72° C. for 10 minutes. IL-10 was amplified using a combination of the sense and antisense oligonucleotides SEQ ID NO:1 and SEQ ID NO:2, respectively, to yield a 364 base pair (bp) PCR product. Glyceraldehyde 3-phosphate dehydrogenase (GAPDH) was amplified using a combination of the sense and antisense oligonucleotides SEQ ID NO:3 and SEQ ID NO:4, respectively, to yield a 238 bp PCR product.

Molecule	hepatocyte colony size (Hepatocytes)	IL-10 mRNA in MSCs (human MSCs)	IL-10 protein secretion into the culture medium by MSCs (human MSCs)
c1cc(CN2CCCNCCNCCCNCC2)ccc1CN1CCCNCCNCCCNCC1 [AMD3100]	smaller colonies		
IL-6: cytokine (R&D Systems) used at 2.5 ng/ml to treat human MSCs		upregulation	upregulation
TNF-α		upregulation	upregulation
